According to patent publication US4319028A, “7-(2-(Substituted benzoyl)amino)acetamido)cephalosporins” (Eli Lilly and Company, priority 1976, dated 1982):
Converted amounts (≈) assume the structure as drawn. Read-outs that look alike come from different tables or passages of the source.

Key:
[1] = test system: V41 (penicillin resistant Staphylococcus); assay: Antibiotic activity (MIC), Gradient Plate in vitro method, V41; format: cell-based; conditions: read-out: Minimum Inhibitory Concentration
Source text: (§1) The antibiotic activity of the cephalosporin compounds of the present invention is illustrated by the data presented in Table I for representative compounds. The values in the table are the minimum inhibitory concentrations (MIC) for the test compounds against the indicated microorganisms. The MIC values were obtained in the Gradient Plate in vitro method for determining antibiotic activity.
(§2) ^1 Test organisms V41, V32, and V84 are penicillin resistant

[2] = test system: V84 (penicillin resistant Staphylococcus); assay: Antibiotic activity (MIC), Gradient Plate in vitro method, V84; format: cell-based; conditions: read-out: Minimum Inhibitory Concentration
Source text: as §1, §2

Shigella sp. = assay: Antibiotic activity (MIC), Gradient Plate in vitro method, Shigella sp.; format: cell-based; conditions: read-out: Minimum Inhibitory Concentration
Source text: as §1

[3] = test system: V32 (penicillin resistant Staphylococcus); assay: Antibiotic activity (MIC), Gradient Plate in vitro method, V32; format: cell-based; conditions: read-out: Minimum Inhibitory Concentration
Source text: as §1, §2

Escherichia coli = assay: Antibiotic activity (MIC), Gradient Plate in vitro method, Escherichia coli; format: cell-based; conditions: read-out: Minimum Inhibitory Concentration
Source text: (§3) The values in the table are the minimum inhibitory concentrations (MIC) for the test compounds against the indicated microorganisms. The MIC values were obtained in the Gradient Plate in vitro method for determining antibiotic activity.

[4] = test system: X466 (methicillin resistant Staphylococcus); assay: Antibiotic activity (MIC), Gradient Plate in vitro method, X466; format: cell-based; conditions: read-out: Minimum Inhibitory Concentration
Source text: as §1, with “activity. […]” for “activity.”

Aerobacter Aerogenes = assay: Antibiotic activity (MIC), Gradient Plate in vitro method, Aerobacter Aerogenes; format: cell-based; conditions: Klebsiella aerogenes, read-out: Minimum Inhibitory Concentration
Source text: as §3

Salmonella heidelberg = assay: Antibiotic activity (MIC), Gradient Plate in vitro method, Salmonella heidelberg; format: cell-based; conditions: Salmonella enterica, read-out: Minimum Inhibitory Concentration
Source text: as §3

Serratia marcescens = assay: Antibiotic activity (MIC), Gradient Plate in vitro method, Serratia marcescens; format: cell-based; conditions: read-out: Minimum Inhibitory Concentration
Source text: as §1

Titration (pKa) = format: physicochemical; conditions: 66% dmf-34% h2o, titration (66% DMF-34% H2O)
Klebsiella pneumoniae = assay: Antibiotic activity (MIC), Gradient Plate in vitro method, Klebsiella pneumoniae; format: cell-based; conditions: read-out: Minimum Inhibitory Concentration
Source text: as §3

Pseudomonas Aeruginosa = assay: Antibiotic activity (MIC), Gradient Plate in vitro method, Pseudomonas Aeruginosa; format: cell-based; conditions: read-out: Minimum Inhibitory Concentration
Source text: as §3

[5] = Gradient Plate in vitro, V41, penicillin resistant Staphylococcus
[6] = Gradient Plate in vitro, V84, penicillin resistant Staphylococcus
[7] = Gradient Plate in vitro, V32, penicillin resistant Staphylococcus
[8] = first pKa, read-out: pKa (first value)
[9] = second pKa, read-out: pKa (second value)

| Structure (SMILES) | MIC [1, 5] [µg/mL] | MIC [2, 6] [µg/mL] | MIC (Shigella sp.) [µg/mL] | MIC [3, 7] [µg/mL] | MIC (Escherichia coli) [µg/mL] | MIC [4] [µg/mL] | MIC (Aerobacter Aerogenes) [µg/mL] | MIC (Salmonella heidelberg) [µg/mL] | MIC (Serratia marcescens) [µg/mL] | pKa (Titration (pKa); [8]) | pKa (Titration (pKa); [9]) | MIC (Klebsiella pneumoniae) [µg/mL] | MIC (Pseudomonas Aeruginosa) [µg/mL] | MIC ([3]; Staphylococcus) [µg/mL] | MIC ([2]; Staphylococcus) [µg/mL] | MIC ([1]; Staphylococcus) [µg/mL] |
| --- | --- | --- | --- | --- | --- | --- | --- | --- | --- | --- | --- | --- | --- | --- | --- | --- |
| Cn1nnnc1SCC1=C(C(=O)O)N2C(=O)C(NC(=O)[C@H](NC(=O)c3cccc(O)c3O)c3ccccc3)C2SC1 (stereo partly drawn) [Example 1, 7-[D-[2-Phenyl-2-[(2,3-dihydroxybenzoyl)amino]acetyl]amino]-3-[[(1-methyltetrazol-5-yl)thio]methyl]-3-cephem-4-carboxylic acid] | 15.1 (≈ 25.3 µM) | 10.3 (≈ 17.2 µM) | 3.7 (≈ 6.19 µM) | 132 (≈ 221 µM) | 14.8 (≈ 24.8 µM) | 136 (≈ 228 µM) | 5.4 (≈ 9.04 µM) | 0.5 (≈ 0.837 µM) | 16.4 (≈ 27.4 µM) | 5.31 | 8.73 | 10 (≈ 16.7 µM) | 13.8 (≈ 23.1 µM) | – | – | – |
| Cn1nnnc1SCC1=C(C(=O)O)N2C(=O)C(NC(=O)[C@H](NC(=O)c3ccc(O)c(O)c3)c3ccc(O)cc3)C2SC1 (stereo partly drawn) [Example 2, 7-[D-[2-(4-Hydroxyphenyl)-2-[(3,4-dihydroxybenzoyl)amino]acetyl]amino]-3-[[(1-methyltetrazol-5-yl)thio]methyl]-3-cephem-4-carboxylic acid] | 3.6 (≈ 5.87 µM) | 3.2 (≈ 5.21 µM) | 1 (≈ 1.63 µM) | 3.8 (≈ 6.19 µM) | 8.5 (≈ 13.9 µM) | 8.4 (≈ 13.7 µM) | 4 (≈ 6.52 µM) | 0.2 (≈ 0.326 µM) | > 200 | 4.1 | 10.9 | 0.8 (≈ 1.3 µM) | 4.9 (≈ 7.99 µM) | – | – | – |
| Cn1nnnc1SCC1=C(C(=O)O)N2C(=O)C(NC(=O)[C@H](NC(=O)c3cccc(O)c3O)c3ccc(O)cc3)C2SC1 (stereo partly drawn) [Example 3, 7-[D-[2-(4-Hydroxyphenyl)-2-[(2,3-dihydroxybenzoyl)amino]acetyl]amino]-3-[[(1-methyltetrazol-5-yl)thio]methyl]-3-cephem-4-carboxylic acid] | 23 (≈ 37.5 µM) | 22 (≈ 35.9 µM) | 7 (≈ 11.4 µM) | 23 (≈ 37.5 µM) | 13.2 (≈ 21.5 µM) | 130 (≈ 212 µM) | 6.6 (≈ 10.8 µM) | 1 (≈ 1.63 µM) | 80 (≈ 130 µM) | 5.02 | 8.83 | 4.1 (≈ 6.68 µM) | 5.3 (≈ 8.64 µM) | – | – | – |
| Cn1nnnc1SCC1=C(C(=O)O)N2C(=O)C(NC(=O)[C@H](NC(=O)c3ccccc3O)c3ccc(O)cc3)C2SC1 (stereo partly drawn) [Example 4, 7-[D-[2-(4-Hydroxyphenyl)-2-[(2-hydroxybenzoyl)amino]acetyl]amino]-3-[[(1-methyltetrazol-5-yl)thio]methyl]-3-cephem-4-carboxylic acid] | 4.6 (≈ 7.7 µM) | 2.2 (≈ 3.68 µM) | 33 (≈ 55.2 µM) | – | 60 (≈ 100 µM) | 41 (≈ 68.6 µM) | 49 (≈ 82 µM) | 32.5 (≈ 54.4 µM) | > 200 | 5.09 | 10 | 29 (≈ 48.5 µM) | 104 (≈ 174 µM) | 4 (≈ 6.69 µM) | – | – |
| Cc1nnc(SCC2=C(C(=O)O)N3C(=O)C(NC(=O)[C@H](NC(=O)c4c(O)cccc4O)c4ccc(O)cc4)C3SC2)s1 (stereo partly drawn) [Example 5, 7-[D-[2-(4-Hydroxyphenyl)-2-[(2,6-dihydroxybenzoyl)-amino]acetyl]amino]-3-[[(5-methyl-1,3,4-thiadiazol-2-yl)thio]methyl]-3-cephem-4-carboxylic acid] | 3.7 (≈ 5.88 µM) | 1.3 (≈ 2.06 µM) | 48 (≈ 76.2 µM) | 4.6 (≈ 7.31 µM) | 96 (≈ 152 µM) | 60 (≈ 95.3 µM) | 110 (≈ 175 µM) | 82 (≈ 130 µM) | > 200 | 5.2 | 9.13 | 29.5 (≈ 46.8 µM) | 27.5 (≈ 43.7 µM) | – | – | – |
| Cc1nnc(SCC2=C(C(=O)O)N3C(=O)C(NC(=O)[C@H](NC(=O)c4cc(O)c(O)c(O)c4)c4ccc(O)cc4)C3SC2)s1 (stereo partly drawn) [Example 6, 7-[D-[2-(4-Hydroxyphenyl)-2-[(3,4,5-trihydroxybenzoyl)-amino]acetyl]amino]-3-[[(5-methyl-1,3,4-thiadiazol-2-yl)thio]methyl]-3-cephem-4-carboxylic acid] | 6.6 (≈ 10.2 µM) | 3.2 (≈ 4.96 µM) | 5.8 (≈ 8.98 µM) | 8.6 (≈ 13.3 µM) | 21.7 (≈ 33.6 µM) | 130 (≈ 201 µM) | 8.4 (≈ 13 µM) | 0.7 (≈ 1.08 µM) | > 200 | 4.88 | – | 3.9 (≈ 6.04 µM) | 6 (≈ 9.29 µM) | – | – | – |
| Cc1nnc(SCC2=C(C(=O)O)N3C(=O)C(NC(=O)[C@H](NC(=O)c4ccc(O)c(O)c4O)c4ccc(O)cc4)C3SC2)s1 (stereo partly drawn) [Example 7, 7-[D-[2-(4-Hydroxyphenyl)-2-[(2,3,4-trihydroxybenzoyl)-amino]-acetyl]amino]-3-[[(5-methyl-1,3,4-thiadiazol-2-yl)thio]methyl]-3-cephem-4-carboxylic acid] | 60 (≈ 92.9 µM) | 25 (≈ 38.7 µM) | 50 (≈ 77.4 µM) | 60 (≈ 92.9 µM) | 100 (≈ 155 µM) | > 200 | 57.5 (≈ 89.1 µM) | 16 (≈ 24.8 µM) | > 200 | – | – | 52.5 (≈ 81.3 µM) | 25 (≈ 38.7 µM) | – | – | – |
| Cc1nnc(SCC2=C(C(=O)O)N3C(=O)C(NC(=O)[C@H](NC(=O)c4c(O)cc(O)cc4O)c4ccc(O)cc4)C3SC2)s1 (stereo partly drawn) [Example 8, 7-[D-[2-(4-Hydroxyphenyl)-2-[(2,4,6-trihydroxybenzoyl)-amino]acetyl]amino]-3-[[(5-methyl-1,3,4-thiadiazol-2-yl)thio]methyl]-3-cephem-4-carboxylic acid] | 10.5 (≈ 16.3 µM) | – | 100 (≈ 155 µM) | – | 120 (≈ 186 µM) | 120 (≈ 186 µM) | 140 (≈ 217 µM) | 110 (≈ 170 µM) | > 200 | – | – | 110 (≈ 170 µM) | 100 (≈ 155 µM) | 10 (≈ 15.5 µM) | 10 (≈ 15.5 µM) | – |
| Cn1c(SCC2=C(C(=O)O)N3C(=O)C(NC(=O)[C@H](NC(=O)c4cccc(O)c4O)c4ccc(O)cc4)C3SC2)nnc(O)c1=O (stereo partly drawn) [Example 9, 7-[D-[2-(4-Hydroxyphenyl)-2-[(2,3-dihydroxybenzoyl)-amino]acetyl]amino]-3-[[(4,5-dihydro-6-hydroxy-4-methyl-5-oxo-1,2,4-triazin-3-yl)thio]methyl]-3-cephem-4-carboxylic acid] | 16.2 (≈ 24.7 µM) | 11.6 (≈ 17.7 µM) | 8 (≈ 12.2 µM) | 14 (≈ 21.3 µM) | 22.5 (≈ 34.3 µM) | > 200 | 11 (≈ 16.8 µM) | 1 (≈ 1.52 µM) | > 200 | 4.99 | 8.89 | 3.9 (≈ 5.94 µM) | 124 (≈ 189 µM) | – | – | – |
| Cc1nnc(SCC2=C(C(=O)O)N3C(=O)C(NC(=O)[C@H](NC(=O)c4cccc(O)c4)c4ccc(O)cc4)C3SC2)s1 (stereo partly drawn) [Example 10, 7-[D-[2-(4-Hydroxyphenyl)-2-[(3-hydroxybenzoyl)amino]-acetyl]amino]-3-[[(5-methyl-1,3,4-thiadiazol-2-yl)thio]-methyl]-3-cephem-4-carboxylic acid] | – | – | 10.4 (≈ 16.9 µM) | – | 28.8 (≈ 46.9 µM) | 92 (≈ 150 µM) | 65.5 (≈ 107 µM) | 26 (≈ 42.4 µM) | > 200 | 5.02 | 11.9 | 16.8 (≈ 27.4 µM) | > 200 | 1 (≈ 1.63 µM) | 1 (≈ 1.63 µM) | 1 (≈ 1.63 µM) |
| Cc1nnc(SCC2=C(C(=O)O)N3C(=O)C(NC(=O)[C@H](NC(=O)c4ccc(O)c(Cl)c4)c4ccc(O)cc4)C3SC2)s1 (stereo partly drawn) [Example 11, 7-[D-[2-(4-Hydroxyphenyl)-2-[(3-chloro-4-hydroxybenzoyl)-amino]acetyl]amino]-3-[[(5-methyl-1,3,4-thiadiazol-2-yl)-thio]methyl]-3-cephem-4-carboxylic acid] | – | – | 9.6 (≈ 14.8 µM) | 1.1 (≈ 1.7 µM) | 11.2 (≈ 17.3 µM) | 122 (≈ 188 µM) | 36.8 (≈ 56.8 µM) | 25 (≈ 38.6 µM) | 80 (≈ 123 µM) | 4.9 | 9.5 | 8.9 (≈ 13.7 µM) | 124 (≈ 191 µM) | – | 1 (≈ 1.54 µM) | 1 (≈ 1.54 µM) |
| Cc1nnc(SCC2=C(C(=O)O)N3C(=O)C(NC(=O)[C@H](NC(=O)c4ccc(N)c(N)c4)c4ccc(O)cc4)C3SC2)s1 (stereo partly drawn) [Example 13, 7-[D-[2-(4-Hydroxyphenyl)-2-[(3,4-diaminobenzoyl)amino]-acetyl]amino]-3-[[(5-methyl-1,3,4-thiadiazol-2-yl)-thio]methyl]-3-cephem-4-carboxylic acid] | 4.6 (≈ 7.33 µM) | – | 13.8 (≈ 22 µM) | 5.2 (≈ 8.28 µM) | 19 (≈ 30.3 µM) | 126 (≈ 201 µM) | 33.2 (≈ 52.9 µM) | 14.6 (≈ 23.3 µM) | 116 (≈ 185 µM) | – | – | 14.8 (≈ 23.6 µM) | 31.5 (≈ 50.2 µM) | – | 5 (≈ 7.97 µM) | – |
